# From patent US20060024708A1, “Porcine sulfotransferase 2A1 polynucleotide sequence, protein, and methods of use for same” (UNIVERSITY OF GUELPH, priority 2004, published 2006)
# Experiments:
# HST = settings: Okuda et al., 1989; Singer et al., 1984; cited from earlier work
# [1] = system: sulfotransferase activity towards 5α-androstenone in Leydig cells; assay: Inhibition studies: production of sulfoconjugated 16-androstene steroids from radiolabelled pregnenolone by purified Leydig cells; assay type: cell-based, boar; settings: for production of sulfoconjugated 16-androstene steroids from pregnenolone: 8 hours, 0, 5, 10, 50 or 100 μM inhibitor
# Experimental: Purified Leydig cells were resuspended (50×10^6 cells/incubation) into a final volume of 25 ml of Williams Media E mixture. Radiolabelled [7-^3H(N)]-pregnenolone (3.4μCi/μmol) was added as a substrate to give a final concentration of 0.4 μmol/incubation. Leydig cells were incubated for a total of 8 hours at 37° C. under 95%:5% CO2 atmosphere at in a Dubnoff shaking waterbath in the presence of 0, 5, 10, 50, or 100 μM of various sulfotransferase inhibitors. 8 hour incubations were used, as this is an optimal time-point for steroid conjugation under these conditions. […] Estrone was used as an EST-inhibitor. The sulfotransferase activity towards 5α-androstenone was determined by HPLC analysis of extracted 5 ml media aliquots.
# Prior to analysis, conjugated steroids were separated from unconjugated steroids with the use of Sep-Pak C18 solid-phase chromatography cartridges as described previously (Raeside et al., 1997). After separation, the conjugate fraction was hydrolyzed overnight in trifluroacetic acid/ethyl acetate (1/100 v/v) at 45° C. in order to liberate the sulfoconjugated steroids (Raeside et al., 1999b). The solvolyzed steroids were then re-extracted by solid-phase chromatography. Enzyme hydrolysis was performed on the remaining conjugated material present after solvolysis with 1250 units of β-glucuronidase (type B-1, from bovine liver), and incubated overnight at 37° C.
# The unconjugated and hydrolyzed steroids from the inhibition studies were analyzed by HPLC using the same protocol as stated above; however; radiolabelled steroids were measured on-line with a Canberra-Packard 500TR flow scintillation analyzer.
# Leydig cells = assay: Viability of isolated Leydig cells (trypan blue exclusion test); assay type: cell-based, boar; settings: 100 μM, 8 h of exposure
# Experimental: After the slaughter of group A boars, bulbourethral glands were removed and measured for length. A backfat sample was removed from the midline on the point of the 11th rib and frozen at −20° C. until assayed for 5α-androstenone. Testes samples were obtained from five randomly selected animals immediately after slaughter. Testes were transported to the laboratory within five minutes of their removal from the boar. One testis was dissected free from the epididymis, cut longitudinally, and decapsulated. The tissue was sliced and 100 g of tissue was incubated for 12 min in a shaking water bath at 37° C. with 1 mg/mL collagenase (type 1A), 50 μg/mL trypsin inhibitor, and 50 μg/mL DNase in 250 mL of Williams Media E containing 1 g/L bovine serum albumin and 0.1 g/L L-glutamine. Purified Leydig cells were obtained by layering the collagenase dispersed cells onto discontinuous Percoll gradients (Raeside and Renaud, 1983). Cell viability was determined with a trypan blue exclusion test. The typical viability of the isolated Leydig cells was 90%.
# Purified Leydig cells were resuspended (50×10^6 cells/incubation) into a final volume of 25 ml of Williams Media E mixture. […] The sulfotransferase activity towards 5α-androstenone was determined by HPLC analysis of extracted 5 ml media aliquots.
# rat SULT2A1 gene = settings: Makishima et al., 1999; cited from earlier work
SMILES,inhibition of HST (HST),production of sulfoconjugated 16-androstene steroids from pregnenolone ([1]; Leydig cells),viability of the Leydig cells (Leydig cells),"production of the unconjugated forms of the 16-androstene steroids ([1]; Leydig cells treated with inhibitor, 8 hours)","production of sulfoconjugated 16-androstene steroids at the 100 μM level ([1]; Leydig cells, 8 hours, 100 μM inhibitor)",induction of the rat SULT2A1 gene (rat SULT2A1 gene)
"Oc1c(Cl)c(Cl)c(Cl)c(Cl)c1Cl [PCP, Pentachlorophenol]",does not inhibit,no effect,less than 50%,,,
CCN(CC)CC [Triethylamine],,decreased production,85%,increased production,near zero levels,
C[C@H](CCC(=O)O)[C@H]1CC[C@H]2[C@@H]3[C@H](O)C[C@@H]4C[C@H](O)CC[C@]4(C)[C@H]3CC[C@]12C [Chenodeoxycholic acid],,,,,,strong inducer
